{"source": "patent EP2468718A1", "about": "“Cabanillasin, a new antifungal compound, produced by entomopathogenic xenorhabdus cabanillasii” (Nosopharm, priority 2010, dated 2012)", "assay_in_all_cases": "Antifungal susceptibility testing, NCCLS M27-A2 broth microdilution (yeasts)", "type_in_all_cases": "cell-based", "key": {"[1]": {"system": "Candida krusei ATCC 6258", "details": "Pichia kudriavzevii, ATCC6258, read-out: % of growth inhibition", "protocol": "(§1) Cabanillasin activity was tested against different fungal human pathogens: ascomycetes yeasts (Candida albicans ATCC 90029, Candida Glabrata ATCC 90030, Candida krusei ATCC 6258 and Candida lusitaniae CBS 6936), basidiomycetes yeasts (Cryptococcus neoformans clinical strain), ascomycetes filamentous fungi (Aspergilus fumigatus clinical strain, Fusarium oxysporum clinical strain) and zygomycetes filamentous fungi (Rhizopus oryzae environemental strain) by the M38-A microdilution method with RPMI 1640 medium (RPMI 1640, MOPS 160 mM, glucose 18 g/L, pH 7) as recommended in the […]. The NCCLS M27-A2 broth microdilution method (NCCLS) was used when yeasts were tested.\n(§2) Yeasts and filamentous inoculi were prepared on YPD medium (yeast extract 10 g/L, peptone 10 g/L and glucose 20 g/L) and Malt medium (malt extract 20 g/L) respectively. The densities of inoculi were adjusted by dilution in RPMI 1640 broth to a value ranged from 5.10^2 to 5.10^3 CFU/mL for yeasts isolates and 5.10^3 to 5.10^4 CFU/mL for filamentous fungi. Microdilution trays (96 U-bottom shaped) containing 190 µL fungal inoculum were added with 10 µL Cabanillasin solution (final concentration ranging from 50 to 0.098 mg/L for all fungi). After inoculation of the trays, all microdilution trays were incubated at 35°C in ambient air. The culture absorbance was measured at 600 nm, 24 h and 48 h after the beginning of the experiments for the yeasts and 48 h and 72 h after the beginning of the experiments for filamentous fungi and Cryptococcus neoformans. The activity results correspond to a percentage of growth inhibition ((1-Abs600 nm culture with Cabanillasin)/ Abs600 nm culture without Cabanillasin) x 100.\n(§3) The IC50 value is the concentration at which inhibition of growth is equal to 50%. MICs for Candida species were determined at 24 h and 48 h and corresponded to 100% of growth inhibition. Amphotericin B was provided as standard (final concentration ranging from 16 to 0.03 mg/L for all fungi). Experiments were done in duplicate."}, "[2]": {"system": "Candida Glabrata ATCC 90030", "details": "Nakaseomyces glabratus, ATCC90030, read-out: % of growth inhibition", "protocol": "as §1, §2, §3"}, "[3]": {"system": "Cryptococcus neoformans clinical strain", "details": "read-out: % of growth inhibition", "protocol": "as §1, §2, §3"}}, "note": "Where two headings read alike, the source gives them in different places."}
{"compound": "C[C@@H]1[C@H](O)[C@@H](C)/C=C/C=C/C=C/C=C/C=C/C=C/C=C/[C@H](O[C@@H]2O[C@H](C)[C@@H](O)[C@H](N)[C@@H]2O)C[C@@H]2O[C@](O)(C[C@@H](O)C[C@@H](O)[C@H](O)CC[C@@H](O)C[C@@H](O)CC(=O)O[C@H]1C)C[C@H](O)[C@H]2C(=O)O", "note": "[Amphotericin B, reference compound]", "values": [{"measurement": "inhibition at 0.03 µg/mL", "setting": "[1]; 24 h incubation", "value": 0, "unit": "%"}, {"measurement": "inhibition at 0.03 µg/mL", "setting": "[1]; 48 h incubation", "value": 25, "unit": "%"}, {"measurement": "inhibition at 0.06 µg/mL", "setting": "[1]; 24 h incubation", "value": 48.4, "unit": "%"}, {"measurement": "inhibition at 0.06 µg/mL", "setting": "[1]; 48 h incubation", "value": 48, "unit": "%"}, {"measurement": "inhibition at 0.12 µg/mL", "setting": "[1]; 24 h incubation", "value": 100, "unit": "%"}, {"measurement": "inhibition at 0.12 µg/mL", "setting": "[1]; 48 h incubation", "value": 76.7, "unit": "%"}, {"measurement": "inhibition at 0.25 µg/mL", "setting": "[1]; 24 h incubation", "value": 100, "unit": "%"}, {"measurement": "inhibition at 0.25 µg/mL", "setting": "[1]; 48 h incubation", "value": 100, "unit": "%"}, {"measurement": "inhibition at 0.5 µg/mL", "setting": "[1]; 24 h incubation", "value": 100, "unit": "%"}, {"measurement": "inhibition at 0.5 µg/mL", "setting": "[1]; 48 h incubation", "value": 100, "unit": "%"}, {"measurement": "inhibition at 1 µg/mL", "setting": "[1]; 24 h incubation", "value": 100, "unit": "%"}, {"measurement": "inhibition at 1 µg/mL", "setting": "[1]; 48 h incubation", "value": 100, "unit": "%"}, {"measurement": "inhibition at 2 µg/mL", "setting": "[1]; 24 h incubation", "value": 100, "unit": "%"}, {"measurement": "inhibition at 2 µg/mL", "setting": "[1]; 48 h incubation", "value": 100, "unit": "%"}, {"measurement": "inhibition at 4 µg/mL", "setting": "[1]; 24 h incubation", "value": 100, "unit": "%"}, {"measurement": "inhibition at 4 µg/mL", "setting": "[1]; 48 h incubation", "value": 100, "unit": "%"}, {"measurement": "inhibition at 8 µg/mL", "setting": "[1]; 24 h incubation", "value": 100, "unit": "%"}, {"measurement": "inhibition at 8 µg/mL", "setting": "[1]; 48 h incubation", "value": 100, "unit": "%"}, {"measurement": "inhibition at 16 µg/mL", "setting": "[1]; 24 h incubation", "value": 100, "unit": "%"}, {"measurement": "inhibition at 16 µg/mL", "setting": "[1]; 48 h incubation", "value": 100, "unit": "%"}, {"measurement": "inhibition at 0.03 µg/mL", "setting": "[2]; 24 h incubation", "value": 16.8, "unit": "%"}, {"measurement": "inhibition at 0.03 µg/mL", "setting": "[2]; 48 h incubation", "value": 25, "unit": "%"}, {"measurement": "inhibition at 0.06 µg/mL", "setting": "[2]; 24 h incubation", "value": 71.3, "unit": "%"}, {"measurement": "inhibition at 0.06 µg/mL", "setting": "[2]; 48 h incubation", "value": 23, "unit": "%"}, {"measurement": "inhibition at 0.12 µg/mL", "setting": "[2]; 24 h incubation", "value": 100, "unit": "%"}, {"measurement": "inhibition at 0.12 µg/mL", "setting": "[2]; 48 h incubation", "value": 68, "unit": "%"}, {"measurement": "inhibition at 0.25 µg/mL", "setting": "[2]; 24 h incubation", "value": 100, "unit": "%"}, {"measurement": "inhibition at 0.25 µg/mL", "setting": "[2]; 48 h incubation", "value": 100, "unit": "%"}, {"measurement": "inhibition at 0.5 µg/mL", "setting": "[2]; 24 h incubation", "value": 100, "unit": "%"}, {"measurement": "inhibition at 0.5 µg/mL", "setting": "[2]; 48 h incubation", "value": 100, "unit": "%"}, {"measurement": "inhibition at 1 µg/mL", "setting": "[2]; 24 h incubation", "value": 100, "unit": "%"}, {"measurement": "inhibition at 1 µg/mL", "setting": "[2]; 48 h incubation", "value": 100, "unit": "%"}, {"measurement": "inhibition at 2 µg/mL", "setting": "[2]; 24 h incubation", "value": 100, "unit": "%"}, {"measurement": "inhibition at 2 µg/mL", "setting": "[2]; 48 h incubation", "value": 100, "unit": "%"}, {"measurement": "inhibition at 4 µg/mL", "setting": "[2]; 24 h incubation", "value": 100, "unit": "%"}, {"measurement": "inhibition at 4 µg/mL", "setting": "[2]; 48 h incubation", "value": 100, "unit": "%"}, {"measurement": "inhibition at 8 µg/mL", "setting": "[2]; 24 h incubation", "value": 100, "unit": "%"}, {"measurement": "inhibition at 8 µg/mL", "setting": "[2]; 48 h incubation", "value": 100, "unit": "%"}, {"measurement": "inhibition at 16 µg/mL", "setting": "[2]; 24 h incubation", "value": 100, "unit": "%"}, {"measurement": "inhibition at 16 µg/mL", "setting": "[2]; 48 h incubation", "value": 100, "unit": "%"}, {"measurement": "inhibition at 0.03 µg/mL", "setting": "[3]; 48 h incubation", "value": 17, "unit": "%"}, {"measurement": "inhibition at 0.03 µg/mL", "setting": "[3]; 72 h incubation", "value": 0, "unit": "%"}, {"measurement": "inhibition at 0.06 µg/mL", "setting": "[3]; 48 h incubation", "value": 32, "unit": "%"}, {"measurement": "inhibition at 0.06 µg/mL", "setting": "[3]; 72 h incubation", "value": 5, "unit": "%"}, {"measurement": "inhibition at 0.12 µg/mL", "setting": "[3]; 48 h incubation", "value": 70, "unit": "%"}, {"measurement": "inhibition at 0.12 µg/mL", "setting": "[3]; 72 h incubation", "value": 44, "unit": "%"}, {"measurement": "inhibition at 0.25 µg/mL", "setting": "[3]; 48 h incubation", "value": 100, "unit": "%"}, {"measurement": "inhibition at 0.25 µg/mL", "setting": "[3]; 72 h incubation", "value": 81.5, "unit": "%"}, {"measurement": "inhibition at 0.5 µg/mL", "setting": "[3]; 48 h incubation", "value": 100, "unit": "%"}, {"measurement": "inhibition at 0.5 µg/mL", "setting": "[3]; 72 h incubation", "value": 100, "unit": "%"}, {"measurement": "inhibition at 1 µg/mL", "setting": "[3]; 48 h incubation", "value": 100, "unit": "%"}, {"measurement": "inhibition at 1 µg/mL", "setting": "[3]; 72 h incubation", "value": 100, "unit": "%"}, {"measurement": "inhibition at 2 µg/mL", "setting": "[3]; 48 h incubation", "value": 100, "unit": "%"}, {"measurement": "inhibition at 2 µg/mL", "setting": "[3]; 72 h incubation", "value": 100, "unit": "%"}, {"measurement": "inhibition at 4 µg/mL", "setting": "[3]; 48 h incubation", "value": 100, "unit": "%"}, {"measurement": "inhibition at 4 µg/mL", "setting": "[3]; 72 h incubation", "value": 100, "unit": "%"}, {"measurement": "inhibition at 8 µg/mL", "setting": "[3]; 48 h incubation", "value": 100, "unit": "%"}, {"measurement": "inhibition at 8 µg/mL", "setting": "[3]; 72 h incubation", "value": 100, "unit": "%"}, {"measurement": "inhibition at 16 µg/mL", "setting": "[3]; 48 h incubation", "value": 100, "unit": "%"}, {"measurement": "inhibition at 16 µg/mL", "setting": "[3]; 72 h incubation", "value": 100, "unit": "%"}]}
